3 compounds from EP1699833B1, “OLIGOMERS CONTAINING N-ACETYL GLUCOSAMINE” (Council of Scientific and Industrial Research, priority 2003, dated 2005) can be followed below.

pIC50: −log10 of the molar value.

For the assay, the target named is lysozyme (Gallus gallus, UniProt P00698). Nature of the assay: Relative inhibition of lysozyme (lysis of Micrococcus lysodeikticus, absorbance at 450 nm). The format is biochemical. The settings on record: Micrococcus lysodeikticus substrate, phosphate buffer pH 6.2, 20° C; for pIC50: read-out: I50; for Imax: maximum inhibition; for concentration at maximum inhibition: concentration at Imax. As to the method: This example describes estimation of relative inhibition of lysozyme by polyvalent oligomer containing NAG
1.5 % w/v stock solutions of oligomer containing NAG was prepared in 0.0066 M phosphate buffer pH 6.2 containing 0.0154 m sodium chloride and 0.008 M sodium azide. One milliliter of stock solution containing different ligand concentration was mixed with 1.6 ml of 78 µg1ml of Micrococcus lysodeikticus in a 3-ml capacity lass cuvette. The mixture was incubated for 5 minutes at 20° C. To this mixture 0.1 ml of lysozyme (27 µg1ml) was added and mixed thoroughly. The absorbance at 450 nm (Δ450) was recorded for 30 seconds. A blank reading without the polymer ligand was noted and the change in the absorbance per second was calculated.

Chain of lysozyme (P00698 19-147): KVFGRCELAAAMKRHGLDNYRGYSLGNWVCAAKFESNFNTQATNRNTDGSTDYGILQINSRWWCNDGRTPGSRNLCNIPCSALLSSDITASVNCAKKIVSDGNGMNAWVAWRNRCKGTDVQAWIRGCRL

In the case of `C=CC(=O)OCC1OC(O)C(NC(C)=O)C(O)C1O` (stereo not shown) [Ac .NAG, Acryloyl N-Acetyl Glucosamine], the pIC50 was 1.83 and the Imax is on record as 50.00.
For the compound `CC(=O)N[C@H]1C(O)O[C@H](CO)[C@@H](O)[C@@H]1O` (stereo partly shown) [NAG, N-Acetyl Glucosamine], the “concentration at maximum inhibition” value is 92.50 mM and the Imax is 55.29.
On to “Methacryloyl N-Acetyl Glucosamine [M.Ac. NAG]”, for which the pIC50 was 1.74, the “concentration at maximum inhibition” value is 21.2 mM and the Imax is given as 71.89.
